The target in one assay is HDAC6 human recombinant (Homo sapiens (Human), UniProt Q9UBN7). The assay can be described thus: HDAC enzyme activity inhibition (in vitro), HDAC6 assay. The assay is classed as biochemical. The following applies: samples at 0.1, 1, 10, 100 and 1000 nM; 37° C. 60 minutes; fluorescence Ex 390, Em 460.
The next assay concerns the target HDAC1 (Homo sapiens (Human), UniProt Q13547). The assay can be described thus: HDAC enzyme activity inhibition (in vitro), HDAC1 Fluorimetric Drug Discovery Assay Kit. Format: biochemical. Particulars: samples at 100, 1000 and 10000 nM; 37° C. 60 minutes; fluorescence Ex 390, Em 460.

HDAC6 human recombinant, sequence (Q9UBN7 whole entry): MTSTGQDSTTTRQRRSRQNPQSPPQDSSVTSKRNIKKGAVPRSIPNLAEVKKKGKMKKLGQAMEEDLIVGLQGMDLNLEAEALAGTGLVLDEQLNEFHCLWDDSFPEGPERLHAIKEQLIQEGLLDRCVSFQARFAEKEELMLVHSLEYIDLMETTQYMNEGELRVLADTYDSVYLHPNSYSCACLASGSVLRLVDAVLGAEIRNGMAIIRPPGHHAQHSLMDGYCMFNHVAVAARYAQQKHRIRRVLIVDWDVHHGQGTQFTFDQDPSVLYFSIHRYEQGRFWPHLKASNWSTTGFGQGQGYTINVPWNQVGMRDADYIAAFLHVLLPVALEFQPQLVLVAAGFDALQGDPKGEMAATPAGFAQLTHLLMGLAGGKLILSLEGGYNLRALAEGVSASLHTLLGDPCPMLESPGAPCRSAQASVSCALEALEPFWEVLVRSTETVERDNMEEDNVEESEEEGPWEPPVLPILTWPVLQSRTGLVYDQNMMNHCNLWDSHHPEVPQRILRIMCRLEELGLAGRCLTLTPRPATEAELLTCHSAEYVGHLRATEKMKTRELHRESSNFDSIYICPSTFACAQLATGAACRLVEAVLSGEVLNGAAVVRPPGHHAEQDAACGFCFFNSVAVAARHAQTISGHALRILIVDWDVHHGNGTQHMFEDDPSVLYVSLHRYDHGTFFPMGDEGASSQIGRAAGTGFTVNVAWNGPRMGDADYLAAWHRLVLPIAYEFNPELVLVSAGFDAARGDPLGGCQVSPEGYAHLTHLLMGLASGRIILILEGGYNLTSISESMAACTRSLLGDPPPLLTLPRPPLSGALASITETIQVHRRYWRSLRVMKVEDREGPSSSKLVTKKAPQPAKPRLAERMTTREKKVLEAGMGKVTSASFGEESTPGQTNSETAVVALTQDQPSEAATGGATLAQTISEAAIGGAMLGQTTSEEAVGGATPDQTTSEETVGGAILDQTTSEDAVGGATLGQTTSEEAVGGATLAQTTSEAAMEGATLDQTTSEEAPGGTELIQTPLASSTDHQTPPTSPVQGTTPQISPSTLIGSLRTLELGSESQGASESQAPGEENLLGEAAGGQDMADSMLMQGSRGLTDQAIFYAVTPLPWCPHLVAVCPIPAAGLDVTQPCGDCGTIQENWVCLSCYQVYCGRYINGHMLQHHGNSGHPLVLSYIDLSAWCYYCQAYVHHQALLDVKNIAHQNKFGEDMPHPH
HDAC1, sequence (Q13547 whole entry): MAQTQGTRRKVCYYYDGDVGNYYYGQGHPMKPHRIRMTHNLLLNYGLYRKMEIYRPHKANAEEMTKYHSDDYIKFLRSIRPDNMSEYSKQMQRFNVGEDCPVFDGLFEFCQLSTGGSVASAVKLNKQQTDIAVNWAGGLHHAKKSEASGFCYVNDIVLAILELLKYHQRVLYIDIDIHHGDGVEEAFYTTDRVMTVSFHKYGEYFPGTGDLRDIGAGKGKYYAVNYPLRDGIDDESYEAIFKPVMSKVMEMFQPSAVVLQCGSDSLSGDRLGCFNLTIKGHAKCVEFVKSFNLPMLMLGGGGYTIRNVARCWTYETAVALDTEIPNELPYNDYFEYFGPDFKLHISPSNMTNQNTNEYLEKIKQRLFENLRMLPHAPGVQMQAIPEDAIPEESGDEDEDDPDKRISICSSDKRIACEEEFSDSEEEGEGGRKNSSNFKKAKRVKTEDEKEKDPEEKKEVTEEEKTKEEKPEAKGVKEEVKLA

With `CN1CCN(c2ccc3c(c2)C(C)(C)C(=O)N(Cc2ccc(-c4nnc(C(F)F)o4)cn2)C3=O)CC1` [Compound 29, 2-((5-(5-(difluoromethyl)-1,3,4-oxadiazole-2-yl)pyridine-2-yl)methyl)-4,4-dimethyl-6-(4-methylpiperazine-1-yl)isoquinoline-1,3(2H,4H)-dione], the results for the IC50 on HDAC6 human recombinant and at HDAC1 were 18 nM and above 10000 nM, respectively.

For the compound `COCCn1c(=O)c2ccccc2n(Cc2ccc(-c3nnc(C(F)F)o3)cc2)c1=O` [Compound 75, 1-(4-(5-(difluoromethyl)-1,3,4-oxadiazole-2-yl)benzyl)-3-(2-methoxyethyl)quinazoline-2,4(1H,3H)-dione], the results for the IC50 on HDAC6 human recombinant and on HDAC1 were 368 nM and above 10000 nM, respectively.

As to `CCN1CCN(c2ccc3c(c2)C(CC)(CC)C(=O)N(Cc2ccc(-c4nnc(C(F)F)o4)cn2)C3=O)CC1` [Compound 142, 2-((5-(5-(difluoromethyl)-1,3,4-oxadiazole-2-yl)pyridine-2-yl)methyl)-4,4-diethyl-6-(4-ethylpiperazine-1-yl)isoquinoline-1,3(2H,4H)-dione], the IC50 (commonly the concentration that inhibits the measured activity by half) on HDAC6 human recombinant was 81 nM; against HDAC1, above 10000 nM.

Regarding `CC1(C)C(=O)N(Cc2ccc(-c3nnc(C(F)F)o3)cn2)C(=O)c2ccc(N3CCN(C4CCC(F)(F)CC4)CC3)cc21` [Compound 150, 6-(4-(4,4-difluorocyclohexyl)piperazine-1-yl)-2-((5-(5-(difluoromethyl)-1,3,4-oxadiazole-2-yl)pyridine-2-yl)methyl)-4,4-dimethylisoquinoline-1,3(2H,4H)-dione], the IC50 at HDAC6 human recombinant is 51 nM; against HDAC1, above 10000 nM.

`CNC(=O)C1CCN(c2ccc3c(c2)C(C)(C)C(=O)N(Cc2ccc(-c4nnc(C(F)F)o4)cn2)C3=O)CC1` [Compound 56, 1-(2-((5-(5-(difluoromethyl)-1,3,4-oxadiazole-2-yl)pyridine-2-yl)methyl)-4,4-dimethyl-1,3-dioxo-1,2,3,4-tetrahydroisoquinoline-6-yl)-N-methylpiperidine-4-carboxamide]: the figures for the IC50 on HDAC6 human recombinant and against HDAC1 were 46 nM and above 10000 nM, respectively.

In the case of `Cn1c(=O)n(Cc2ccc(-c3nnc(C(F)F)o3)cn2)c(=O)c2cc(-c3cccc(F)c3)ccc21` [Compound 90, 3-((5-(5-(difluoromethyl)-1,3,4-oxadiazole-2-yl)pyridine-2-yl)methyl)-6-(3-fluorophenyl)-1-methylquinazoline-2,4(1H,3H)-dione], the IC50 at HDAC6 human recombinant is 41 nM; against HDAC1 it was above 10000 nM.

For the compound `CC(C)(C)OC(=O)N1CCN(c2ccc3c(c2)C(C)(C)C(=O)N(Cc2ccc(-c4nnc(C(F)F)o4)cn2)C3=O)CC1` [Compound 25, tert-butyl 4-(2-((5-(5-(difluoromethyl)-1,3,4-oxadiazole-2-yl)pyridine-2-yl)methyl)-4,4-dimethyl-1,3-dioxo-1,2,3,4-tetrahydroisoquinoline-6-yl)piperazine-1-carboxylate], the IC50 on HDAC6 human recombinant is 158 nM; at HDAC1, above 10000 nM.

For the compound `CN1CCC(c2ccc3c(c2)C(=O)N(Cc2ccc(-c4nnc(C(F)F)o4)cn2)C(=O)C3(C)C)CC1` [Compound 54, 2-((5-(5-(difluoromethyl)-1,3,4-oxadiazole-2-yl)pyridine-2-yl)methyl)-4,4-dimethyl-7-(1-methylpiperidine-4-yl)isoquinoline-1,3(2H,4H)-dione], the figures for the IC50 at HDAC6 human recombinant and against HDAC1 were 42 nM and above 10000 nM, respectively.

As for `CC1(C)C(=O)N(Cc2ccc(-c3nnc(C(F)F)o3)cn2)C(=O)c2ccc(-c3ccco3)cc21` [Compound 74, 2-((5-(5-(difluoromethyl)-1,3,4-oxadiazole-2-yl)pyridine-2-yl)methyl)-6-(furan-2-yl)-4,4-dimethylisoquinoline-1,3(2H,4H)-dione], the IC50 at HDAC6 human recombinant is 49 nM; against HDAC1, above 10000 nM.

For the origin of these results see patent US12440484B2, “1,3,4-oxadiazole homophthalimide derivative compounds as histone deacetylase 6 inhibitor, and the pharmaceutical composition comprising the same” (Chong Kun Dang Pharmaceutical Corp., priority 2019, dated 2025).
